Data as given in publication PMC10709440, “High-throughput ligand profile characterization in novel cell lines expressing seven heterologous insect olfactory receptors for the detection of volatile plant biomarkers” (Scientific Reports, 2023).
Read-outs that look alike come from different tables or passages of the source.

Biological target: T1, Drosophila OR13a (Drosophila melanogaster, UniProt Q9VXL0)
T1 construct: expressed in transfected cells
T1 sequence (Q9VXL0 1-418): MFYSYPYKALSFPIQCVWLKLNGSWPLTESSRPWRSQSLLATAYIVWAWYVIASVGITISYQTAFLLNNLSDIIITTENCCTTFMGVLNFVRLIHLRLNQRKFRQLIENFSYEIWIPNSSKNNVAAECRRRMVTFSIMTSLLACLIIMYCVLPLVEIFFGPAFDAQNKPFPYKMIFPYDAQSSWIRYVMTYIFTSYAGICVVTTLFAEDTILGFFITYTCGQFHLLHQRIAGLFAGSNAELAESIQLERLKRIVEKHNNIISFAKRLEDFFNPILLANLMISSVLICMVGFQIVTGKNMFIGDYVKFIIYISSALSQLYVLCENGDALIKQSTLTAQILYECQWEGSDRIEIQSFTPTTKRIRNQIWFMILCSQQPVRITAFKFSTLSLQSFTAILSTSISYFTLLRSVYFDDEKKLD
T1 sequence (Q9VNB5 1-486 partner): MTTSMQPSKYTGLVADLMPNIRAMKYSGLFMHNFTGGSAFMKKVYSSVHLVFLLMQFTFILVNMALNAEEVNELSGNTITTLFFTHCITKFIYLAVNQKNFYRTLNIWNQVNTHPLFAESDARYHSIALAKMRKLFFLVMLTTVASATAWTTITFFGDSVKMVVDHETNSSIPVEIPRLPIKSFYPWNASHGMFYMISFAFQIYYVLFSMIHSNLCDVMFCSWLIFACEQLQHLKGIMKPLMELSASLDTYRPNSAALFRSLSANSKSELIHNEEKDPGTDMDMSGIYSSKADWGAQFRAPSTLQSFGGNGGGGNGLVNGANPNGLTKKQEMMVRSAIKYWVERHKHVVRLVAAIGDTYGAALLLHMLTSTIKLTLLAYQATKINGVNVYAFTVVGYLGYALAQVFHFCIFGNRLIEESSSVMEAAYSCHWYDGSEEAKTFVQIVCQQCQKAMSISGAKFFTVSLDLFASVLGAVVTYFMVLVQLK
Experiment: Calcium ion fluorescence (GCaMP6) assay, OR13a stable HEK293 cell line
Assay type: cell-based
Details: for OR13a response (VUAA1-normalized) at 1 μM / OR13a response (VUAA1-normalized) at 10 μM / OR13a response (VUAA1-normalized) at 100 μM: OR13a cell line
Description: These VUAA1 normalized ∆F values were used to compare the different receptors and ligands.
The concentration-dependent effect of the reference ligands on their cognate cell lines was examined in more detail. Twelve different ligand concentrations were measured on each cell line in an overall 0.01 μM to 100 μM concentration range with 5 repetitions with three technical replicates each time.
Twelve thousand to 18,000 cells were plated into each well of a black wall, transparent bottom 384-well microplate (Greiner) 48 h or 72 h before the measurements and were simultaneously treated with 1 μg/mL doxycycline. […] The plate has 24 columns, thus we could record responses in up to eight different cell lines in each plate. On the day of the experiment, the growth medium was replaced with 20 µL assay buffer/well (140 mM NaCl, 5 mM KCl, 2 mM CaCl2, 1 mM MgCl2, 5 mM HEPES-Na, 20 mM glucose, pH 7.3, 340 mOsm). […] Baseline fluorescence (F0) was recorded for 5 s, after which 7 µL VOC buffer (140 mM NaCl, 5 mM KCl, 2 mM CaCl2, 1 mM MgCl2, 5 mM HEPES-Na, 31 mM glucose, 0.1% DMSO, pH 7.3, 340 mOsm) was injected into each well in one row and the fluorescence response was recorded for an additional 30 s, at a rate of one read/sec. VOC solutions (VOC buffer with 4× concentration of the final measured VOC concentration, 9 µL/well was injected) were measured on the same wells in a second round with the same protocol. Each individual concentration of a specific VOC sample was recorded in three wells for the same cell line on the same microplate. The raw data were exported in xls file format, F0 and FMAX values, and the fluorescence intensity changes (∆F) were calculated in Excel (Microsoft) (Supplementary file Data summary.xlsx) using the following equation: ΔF=FMAX-F0/F0 (see also Fig. 1C). On each plate, we recorded the response of each cell line to 50 µM VUAA1. The average of these ∆F values of each cell line were used to calculate the VUAA1-normalized values for the rest of the plate, by dividing VOC response ∆F values by the average VUAA1 response ∆F value of the corresponding OR cell line. Each VOC-OR combination was measured three times as technical replicates. […] The average of these replicates were used as one ∆F and VUAA1-normalized ∆F in the following analysis.
In the next rows we tested the reference VOCs (or other VOCs known to activate the corresponding cell lines), in order to test if all cell lines are responsive. The remaining rows were used to test VOCs with unknown effect.
The recorded FMAX, F0, ∆F, VUAA1-normalized ∆F values, as well as the OR name, the name of the tested sample, and the final concentration for each well were copied into supplementary file Data summary.xlsx, that was used to summarize all the plates recorded. Here, the averages of the measurements were calculated for each receptor-VOC-concentration combination.

[1] = HEK293, read-out: OR13a Average response (VUAA1-normalized), 1 μM VOC, 50 μM VUAA1 = 1, responses not exceeding 0.05 considered 0
[2] = HEK293, read-out: OR13a Average response (VUAA1-normalized), 10 μM VOC, 50 μM VUAA1 = 1, responses not exceeding 0.05 considered 0
[3] = HEK293, read-out: OR13a Average response (VUAA1-normalized), 100 μM VOC, 50 μM VUAA1 = 1, responses not exceeding 0.05 considered 0
[4] = HEK293, read-out: OR13a response (VUAA1-normalized response), VOC concentration 1 μM
[5] = HEK293, read-out: OR13a response (VUAA1-normalized response), VOC concentration 10 μM
[6] = HEK293, read-out: OR13a response (VUAA1-normalized response), VOC concentration 100 μM
[7] = concentration 1, normalized fluorescence change, values below 0.05 threshold given as 0
[8] = concentration 10, normalized fluorescence change, values below 0.05 threshold given as 0
[9] = concentration 100, normalized fluorescence change, values below 0.05 threshold given as 0
[10] = ligand concentration 1 (unit not given), 0.05 threshold, values below shown as 0
[11] = ligand concentration 10 (unit not given), 0.05 threshold, values below shown as 0
[12] = ligand concentration 100 (unit not given), 0.05 threshold, values below shown as 0
[13] = 1 μM VOC, 50 μM VUAA1 = 1, responses not exceeding 0.05 considered 0
[14] = 10 μM VOC, 50 μM VUAA1 = 1, responses not exceeding 0.05 considered 0
[15] = 100 μM VOC, 50 μM VUAA1 = 1, responses not exceeding 0.05 considered 0
[16] = ligand concentration 1 (unit not given), threshold 0.05, below shown as 0
[17] = ligand concentration 10 (unit not given), threshold 0.05, below shown as 0
[18] = ligand concentration 100 (unit not given), threshold 0.05, below shown as 0

Row | Compound | activation at 1 µM [1] [%] | activation at 10 µM [2] [%] | activation at 100 µM [3] [%] | activation at 1 µM [4] [%] | activation at 10 µM [5] [%] | activation at 100 µM [6] [%] | DF norm AVERAGE OR13a [7] | DF norm AVERAGE OR13a [8] | DF norm AVERAGE OR13a [9] | OR13a response (VUAA1-normalized) at 1 μM (VOC concentration 1 μM) | OR13a response (VUAA1-normalized) at 10 μM (VOC concentration 10 μM) | OR13a response (VUAA1-normalized) at 100 μM (VOC concentration 100 μM) | DF norm AVERAGE OR13a [10] | DF norm AVERAGE OR13a [11] | DF norm AVERAGE OR13a [12] | other results
1 | CCCCCCCCC(CO)CCCCCC (centres unmarked) [2-hexyl-1-decanol] | 7 | 0 | 0 | 7 | 0 | 0 | 0.07079 | 0 | 0 |  |  |  |  |  |  | 
2 | CCCCCCCCCCC [undecane] | 0 | 0 | 0 |  |  |  |  |  |  | 0.00 | 0.00 | 0.00 | 0 | 0 | 0 | 
3 | (-)-alpha-cedrene |  |  |  |  |  |  | 0 | 0 | 0 |  |  |  |  |  |  | OR13a Average response (VUAA1-normalized) [13]: 0.00; OR13a Average response (VUAA1-normalized) [14]: 0.00; OR13a Average response (VUAA1-normalized) [15]: 0.00; OR13a response (VUAA1-normalized response) (VOC concentration 1 μM): 0.00; OR13a response (VUAA1-normalized response) (VOC concentration 10 μM): 0.00; OR13a response (VUAA1-normalized response) (VOC concentration 100 μM): 0.00
4 | C=C1CCC2(C(C)C)CC12 (centres unmarked) [sabinene] | 0 | 0 | 0 |  |  |  |  |  |  | 0.00 | 0.00 | 0.00 |  |  |  | DF norm AVERAGE OR13a [16]: 0; DF norm AVERAGE OR13a [17]: 0; DF norm AVERAGE OR13a [18]: 0
5 | Cc1ccc(C)c(C)c1 [1,2,4-trimethylbenzene] | 0 | 0 | 0 | 0 | 0 | 0 | 0 | 0 | 0 |  |  |  |  |  |  | 
6 | Cc1ccccc1 [toluene] | 0 | 0 | 0 |  |  |  |  |  |  | 0.00 | 0.00 | 0.00 | 0 | 0 | 0 | 
7 | C=C1[C@H]2CC[C@@H]3[C@H]2C(C)(C)CCC[C@]13C [(+)-longifolene] |  |  |  |  |  |  | 0 | 0 | 0 |  |  |  |  |  |  | OR13a Average response (VUAA1-normalized) [13]: 0.00; OR13a Average response (VUAA1-normalized) [14]: 0.037; OR13a Average response (VUAA1-normalized) [15]: 0.00; OR13a response (VUAA1-normalized response) (VOC concentration 1 μM): 0.00; OR13a response (VUAA1-normalized response) (VOC concentration 10 μM): 0.00; OR13a response (VUAA1-normalized response) (VOC concentration 100 μM): 0.00
8 | CCCCCCCCCCCCCC [tetradecane] | 2.63 | 1.68 | 0 |  |  |  |  |  |  | 0.00 | 0.00 | 0.00 | 0 | 0 | 0 | 
9 | CC1=CCC[C@@]2(C)[C@@H]3CC[C@]12CC3(C)C [(−)-α-neoclovene] |  |  |  |  |  |  | 0 | 0 | 0 |  |  |  |  |  |  | OR13a Average response (VUAA1-normalized) [13]: 0.0436; OR13a Average response (VUAA1-normalized) [14]: 0.00; OR13a Average response (VUAA1-normalized) [15]: 0.00; OR13a response (VUAA1-normalized response) (VOC concentration 1 μM): 0.00; OR13a response (VUAA1-normalized response) (VOC concentration 10 μM): 0.00; OR13a response (VUAA1-normalized response) (VOC concentration 100 μM): 0.00
10 | CC1=CCC23CC1C(C)(C)C2CCC3C (stereo not drawn) [α-funebrene] | 0 | 0 | 0 |  |  |  |  |  |  | 0.00 | 0.00 | 0.00 | 0 | 0 | 0 | 
11 | Cc1ccc(C)cc1 [p-xylene] | 0 | 0 | 2.5 |  |  |  |  |  |  | 0.00 | 0.00 | 0.00 |  |  |  | DF norm AVERAGE OR13a [16]: 0; DF norm AVERAGE OR13a [17]: 0; DF norm AVERAGE OR13a [18]: 0
12 | C=Cc1ccccc1 [styrene] | 3 | 0 |  |  |  |  |  |  |  | 0.00 | 0.00 | 0.00 | 0 | 0 | 0 | 
13 | CCCCCC(=O)CC [3-octanone] | 0 | 0 | 2.55 | 0 | 0 | 0 | 0 | 0 | 0 |  |  |  |  |  |  | 
14 | CCCC(O)CC (centres unmarked) [3-hexanol] | 5 | 4.43 | 1.88 | 0 | 0 | 0 | 0 | 0 | 0 |  |  |  |  |  |  | 
15 | COc1cccc(OC)c1 [1,3-dimethoxy benzene] | 0 | 0 | 3.71 | 0 | 0 | 0 | 0 | 0 | 0 |  |  |  |  |  |  | 
